System: HCV 1a genotype replicon (Huh-1a7 cell line, strain H77)
Test: HCV Replicon Assay qRT-PCR, genotype 1a
Assay type: cell-based
Conditions: Hepatitis C virus, read-out: 1a EC50
Source text: HCV replicon cell lines (kindly provided by R. Bartenschlager) isolated from colonies as described by Lohman et al. (Lohman et al. (1999) Science 285: 110-113, expressly incorporated by reference in its entirety) and used for all experiments. One of the HCV replicon cell lines (strain Conl, genotype 1b) has the nucleic acid sequence set forth in EMBL Accession No.: AJ242651, the coding sequence of which is from nucleotides 1801 to 8406. Another replicon cell line (strain H77, genotype 1a) was constructed as described by Yi et. al. (Yi et. al. (2004) Journal of Virology 78(15):7904-15). […]
EC50 values of single agent compounds were determined by HCV RNA detection using quantitative RT-PCR, according to the manufacturer's instructions, with a TAQMAN® One-Step RT-PCR Master Mix Reagents Kit (Cat#AB 4309169, Applied Biosystems) on an ABI Model 7500 thermocycler. EC50 values of combinations are similarly determined by HCV RNA detection using quantitative RT-PCR. The TAQMAN primers to use for detecting and quantifying HCV RNA obtained from Integrated DNA Technologies. HCV RNA is normalized to GAPDH RNA levels in drug-treated cells, which is detected and quantified using the Human GAPDH Endogenous Control Mix (Applied Biosystems, AB 4310884E). […] Chemical agent cytotoxicity is evaluated using an MTS assay according to the manufacturer's directions (Promega). […]

[2H]c1cn([C@@H]2O[C@H](CO[P@@](=O)(N[C@@H](C)C(=O)OC(C)C)Oc3ccccc3)C(O)C2(C)F)c(=O)[nH]c1=O (stereo partly shown) [Example 1]
EC50: 100 to 1000 nM

From US10034893B2, “5, 6-D2 uridine nucleoside/tide derivatives” (priority 2013, dated 2018)
